The results in this text go back to paper PMC10439952, “JT002, a small molecule inhibitor of the NLRP3 inflammasome for the treatment of autoinflammatory disorders” (Scientific Reports, 2023).

In general, IC50 refers to the point on the concentration scale where inhibition reaches its midpoint. By IC90 is commonly meant the concentration needed for an effect of 90%.

Assay type in all cases: cell-based
Experiment [1] deals with T1, NLRP3 inflammasome (Mus musculus, UniProt Q8R4B8). Description: Inhibition of IL-1β production in mouse PBMCs stimulated by LPS + ATP. More on the design: host or cells: mouse PBMCs; mouse bone-marrow derived macrophages; mouse whole blood (C57BL/6 in the ex vivo study). Particulars: Mouse PBMC, read-out: Geo Av IC50, IL-1β. As to the method:
(§1) Inflammasome activation and whole blood assays were essentially carried out as described earlier. Details can be found in the supplementary information section accompanying this publication. A protocol for blood draws from healthy volunteers and use of the blood in preclinical assays was approved by Western Institutional Review Board, Inc (Puyallup, WA, USA). Informed consent was obtained from each donor prior to the first blood draw.
(§2) Cell viability was determined by addition of an equal volume of CellTiter-Glo® 2.0 reagent (Promega) to the remaining cells/supernatant in each well. Intracellular Caspase-1 activity was measured using the Caspase-Glo® assay (Promega) according to the manufacturer’s instructions. The biochemical capsase-1 assay was conducted at Reaction Biology Corporation (Malvern, USA). Human IL-1β, IL-1α, and TNFα and mouse IL-1β were measured in cell culture supernatants using homogeneous time resolved fluorescence assay kits (HTRF, Cisbio, Codolet, France). Human IL-18 was measured in cell culture supernatants using an ELISA kit (R&D Systems, Minneapolis, MN, USA). Plasma IL-1β concentrations were determined by Quantikine® ELISA (R&D Systems, Minneapolis, MN).
4H). MS: m/z 433.1 (M+H+). […]

The target of experiment [2] is NLRP3 inflammasome (Homo sapiens, UniProt Q96P20). Description: Inhibition of IL-1β production in LPS stimulated (alternative pathway) human whole blood. How it is done: as §1
as §2, with “MN). […]” for “MN).”
(§3) flagellin, prepared in Opt iMEM and combined with Lipofectamine 2000. […]

In experiment [3] the target is T1, NLRP3 inflammasome. Description: Inhibition of IL-1β production in LPS + ATP stimulated mouse whole blood. How it is done:
as §1
as §2, with “MN). […]” for “MN).”
as §3

T1 sequence (Q8R4B8 whole entry): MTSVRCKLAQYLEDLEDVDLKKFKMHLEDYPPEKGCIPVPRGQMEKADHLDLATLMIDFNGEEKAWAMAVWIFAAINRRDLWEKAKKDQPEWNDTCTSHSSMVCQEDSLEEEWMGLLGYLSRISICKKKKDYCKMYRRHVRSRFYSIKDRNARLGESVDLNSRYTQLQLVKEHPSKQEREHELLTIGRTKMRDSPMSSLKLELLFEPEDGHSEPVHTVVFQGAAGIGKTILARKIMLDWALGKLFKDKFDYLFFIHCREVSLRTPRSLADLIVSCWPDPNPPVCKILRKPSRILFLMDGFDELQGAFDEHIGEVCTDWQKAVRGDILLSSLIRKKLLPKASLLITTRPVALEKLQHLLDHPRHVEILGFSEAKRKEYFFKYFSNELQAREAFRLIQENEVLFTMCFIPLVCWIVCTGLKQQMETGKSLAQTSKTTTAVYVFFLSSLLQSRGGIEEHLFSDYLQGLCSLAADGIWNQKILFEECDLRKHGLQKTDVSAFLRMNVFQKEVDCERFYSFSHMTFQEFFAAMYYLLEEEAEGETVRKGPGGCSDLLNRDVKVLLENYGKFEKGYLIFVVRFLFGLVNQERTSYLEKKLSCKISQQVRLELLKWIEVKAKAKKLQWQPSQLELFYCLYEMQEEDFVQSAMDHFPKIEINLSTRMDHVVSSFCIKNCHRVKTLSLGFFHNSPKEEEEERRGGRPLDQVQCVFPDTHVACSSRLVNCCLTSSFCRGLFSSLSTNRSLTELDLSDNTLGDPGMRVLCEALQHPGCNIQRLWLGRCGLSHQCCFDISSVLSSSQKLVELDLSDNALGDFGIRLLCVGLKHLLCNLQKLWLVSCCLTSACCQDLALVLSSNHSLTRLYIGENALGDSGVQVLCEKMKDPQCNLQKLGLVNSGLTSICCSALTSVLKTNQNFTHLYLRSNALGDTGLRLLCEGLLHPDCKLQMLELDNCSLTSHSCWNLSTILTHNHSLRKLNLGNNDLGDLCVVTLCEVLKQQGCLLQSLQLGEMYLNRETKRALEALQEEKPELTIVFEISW
Chain of NLRP3 inflammasome (Homo sapiens, UniProt Q96P20) (Q96P20 whole entry): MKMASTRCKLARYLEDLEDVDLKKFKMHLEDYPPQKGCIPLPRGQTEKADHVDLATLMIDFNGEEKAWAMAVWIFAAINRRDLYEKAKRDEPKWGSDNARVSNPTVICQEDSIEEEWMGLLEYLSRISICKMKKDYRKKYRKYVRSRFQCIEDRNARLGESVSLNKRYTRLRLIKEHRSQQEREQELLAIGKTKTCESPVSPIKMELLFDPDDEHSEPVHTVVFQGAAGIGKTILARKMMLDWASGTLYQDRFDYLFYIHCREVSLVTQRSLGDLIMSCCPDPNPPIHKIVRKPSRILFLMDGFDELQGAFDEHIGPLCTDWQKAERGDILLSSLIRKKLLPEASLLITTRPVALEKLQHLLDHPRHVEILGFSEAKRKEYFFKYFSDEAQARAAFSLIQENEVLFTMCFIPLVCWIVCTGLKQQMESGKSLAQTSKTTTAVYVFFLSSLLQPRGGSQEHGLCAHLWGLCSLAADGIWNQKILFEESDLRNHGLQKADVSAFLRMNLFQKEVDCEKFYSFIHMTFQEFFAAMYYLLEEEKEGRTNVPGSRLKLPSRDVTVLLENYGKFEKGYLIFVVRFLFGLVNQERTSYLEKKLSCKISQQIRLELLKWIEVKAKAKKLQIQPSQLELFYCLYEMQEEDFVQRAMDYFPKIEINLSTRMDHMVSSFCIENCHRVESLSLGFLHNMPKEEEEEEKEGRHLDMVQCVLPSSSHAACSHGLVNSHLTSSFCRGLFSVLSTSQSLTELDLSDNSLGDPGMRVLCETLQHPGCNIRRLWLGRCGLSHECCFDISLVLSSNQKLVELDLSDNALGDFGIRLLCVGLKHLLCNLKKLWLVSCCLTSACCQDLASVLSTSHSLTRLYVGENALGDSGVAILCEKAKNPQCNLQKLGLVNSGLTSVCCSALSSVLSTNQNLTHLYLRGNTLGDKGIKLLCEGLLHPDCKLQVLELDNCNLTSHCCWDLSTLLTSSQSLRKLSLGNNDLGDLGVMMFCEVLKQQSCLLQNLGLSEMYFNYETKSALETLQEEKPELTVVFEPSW

Regarding `CO[C@@H]1COc2c(S(=O)(=O)NC(=O)Nc3c4c(cc5c3CCC5)CCC4)cnn2C1` [JT002], the IC50 on NLRP3 inflammasome [1] came to 7 nM; at NLRP3 inflammasome [2] (Human whole blood, LPS only (alternative pathway), read-out: Geo Av IC50, IL-1β), 32 nM; on NLRP3 inflammasome [3] (read-out: Geo Av IC50, IL-1β), 94 nM. Also, on NLRP3 inflammasome [2] (how much lower the alternative pathway IC50 is), the “IC50 in human whole blood, alternative (LPS) versus canonical (LPS + ATP) NLRP3 pathway activation” value is recorded as “threefold more potent”. Further, the IC90 on NLRP3 inflammasome [3] (IL-1β, read-out: in vitro mouse whole blood IC90) was 716 nM.
